Test system: marginal ear vein of a rabbit
Assay: vascular irritation assay
Format: in vivo
Details: control group, administered into the ear vein for 3 days
Description: The vascular irritation assay using inclusion complex of butylphthalide with hydroxypropyl-β-cyclodextrin is provided as follows:
Eight rabbits were divided into two groups, namely, test group and control group. For the test group, 2.45 g/kg of the inclusion complex together with 40 ml of 5% glucose were instilled via the marginal ear vein of a rabbit at the rate of 1.5 ml/min. The administration was once per day and lasted for 3 days. […] The administration lasted for 3 days.

**Q.** With `CC(=O)O` [10% acetic acid, acetic acid] as the compound, how does the “vascular irritation (topical findings)” value read?
**A.** Its value is “topical hyperaemia, thickening, and exudation”.

— US7678776B2, “Inclusion complexes of butylphthalide with cyclodextrin or its derivatives, a process for their preparation and the use thereof” (Shijiazhuang Pharma. Group Zhongqi Pharmaceutical …, priority 2002, dated 2010)
